The target of assay [1] is T1, rFC (full-length recombinant C. rotundicauda Factor C, CrFC21, from P. pastoris) (Carcinoscorpius rotundicauda, UniProt Q26422).
T1 sequence (Q26422 1-1019): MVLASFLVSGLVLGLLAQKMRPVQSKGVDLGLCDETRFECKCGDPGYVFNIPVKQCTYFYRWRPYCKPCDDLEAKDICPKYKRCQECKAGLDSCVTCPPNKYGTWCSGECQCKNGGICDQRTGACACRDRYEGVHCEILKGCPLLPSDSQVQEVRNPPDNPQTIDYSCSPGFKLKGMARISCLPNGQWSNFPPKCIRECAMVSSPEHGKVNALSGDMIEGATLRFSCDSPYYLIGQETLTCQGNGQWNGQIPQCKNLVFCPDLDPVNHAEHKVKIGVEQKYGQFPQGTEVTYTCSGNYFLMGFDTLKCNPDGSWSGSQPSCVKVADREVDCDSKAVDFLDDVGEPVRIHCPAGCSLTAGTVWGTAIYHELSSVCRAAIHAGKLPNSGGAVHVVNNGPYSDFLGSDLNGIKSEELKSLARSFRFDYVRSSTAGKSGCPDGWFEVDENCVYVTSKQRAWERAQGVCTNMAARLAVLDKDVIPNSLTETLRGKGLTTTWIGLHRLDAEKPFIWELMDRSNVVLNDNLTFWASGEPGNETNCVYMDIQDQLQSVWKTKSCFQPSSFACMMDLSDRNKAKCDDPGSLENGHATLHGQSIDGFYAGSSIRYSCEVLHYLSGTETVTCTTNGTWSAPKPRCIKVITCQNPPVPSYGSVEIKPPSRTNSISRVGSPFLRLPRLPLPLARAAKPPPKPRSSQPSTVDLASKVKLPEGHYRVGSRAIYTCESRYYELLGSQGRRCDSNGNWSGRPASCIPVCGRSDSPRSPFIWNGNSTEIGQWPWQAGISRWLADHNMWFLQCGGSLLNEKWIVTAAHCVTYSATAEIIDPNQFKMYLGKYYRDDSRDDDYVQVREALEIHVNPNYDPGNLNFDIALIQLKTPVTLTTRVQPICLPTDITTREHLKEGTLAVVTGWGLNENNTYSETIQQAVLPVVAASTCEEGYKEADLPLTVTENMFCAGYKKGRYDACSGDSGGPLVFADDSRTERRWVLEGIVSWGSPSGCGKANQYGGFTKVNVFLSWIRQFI
The experiment in a line: BIACORE X binding to immobilized lipid A. The settings on record: partially-pure rFC to lipid A 10:1 on a mass basis. On the procedure:
(§1) The binding interactions between rFC and immobilized lipid A were monitored using the BIACORE X™ biosensor (Pharmacia Biotech). The BIACORE X™ sensor chip features a flat hydrophobic surface that allows the immobilization of ligand molecules. Thirty microliters of lipid A at 100 μg/ml were immobilized on each sensor chip to form a ligand surface. Biomax™-50 enriched samples of rFC, rFCEE and rFCSN, each at 1 mg/ml were injected at 10 μl/min for 3 min over the ligand surface. After each injection of the recombinant protein samples, the lipid A ligand surface was regenerated using 0.1 M NaOH. The ligand-binding was measured in relative response units (RU) for each sample, and calculated from the difference in RU at the baseline, viz., before injection of sample, and final experimental reading taken after sample injection and a 2-min wash. The percentage binding was thus determined.
A general note: SPR reads the build-up and loss of mass on a sensor chip optically.

Assay [2] deals with T2, rFCEE (truncated C. rotundicauda Factor C, CrFC21EE, amino acids 1-766, from P. pastoris) (Carcinoscorpius rotundicauda, UniProt Q26422).
T2 construct: Pichia pastoris, Biomax-50 enriched
T2 sequence (Q26422 1-766): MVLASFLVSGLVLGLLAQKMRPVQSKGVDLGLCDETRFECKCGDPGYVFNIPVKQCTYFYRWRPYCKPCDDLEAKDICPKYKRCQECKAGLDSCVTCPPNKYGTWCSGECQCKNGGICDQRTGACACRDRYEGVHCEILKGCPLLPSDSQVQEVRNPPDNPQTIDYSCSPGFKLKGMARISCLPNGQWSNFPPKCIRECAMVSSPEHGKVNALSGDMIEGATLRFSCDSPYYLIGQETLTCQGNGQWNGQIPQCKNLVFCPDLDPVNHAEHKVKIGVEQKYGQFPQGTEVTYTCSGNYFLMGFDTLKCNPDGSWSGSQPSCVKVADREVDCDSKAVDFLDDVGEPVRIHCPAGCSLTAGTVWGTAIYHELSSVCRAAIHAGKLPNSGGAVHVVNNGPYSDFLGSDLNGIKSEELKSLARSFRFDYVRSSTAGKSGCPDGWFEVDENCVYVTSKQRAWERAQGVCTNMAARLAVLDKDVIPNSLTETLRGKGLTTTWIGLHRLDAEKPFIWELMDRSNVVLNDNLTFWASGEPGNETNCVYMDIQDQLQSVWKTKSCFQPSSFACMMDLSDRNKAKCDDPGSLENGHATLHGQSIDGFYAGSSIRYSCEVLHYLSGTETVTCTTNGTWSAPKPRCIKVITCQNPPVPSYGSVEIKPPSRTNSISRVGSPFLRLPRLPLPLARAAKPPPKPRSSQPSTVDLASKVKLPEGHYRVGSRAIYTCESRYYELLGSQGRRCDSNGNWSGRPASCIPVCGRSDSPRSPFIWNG
The experiment in a line: BIACORE X binding to immobilized lipid A. The settings on record: Biomax-50 enriched, normalized with rFCSN. Here is the method: as §1

For assay [3], the target named is T3, SSCrFCES (LPS-binding domain of C. rotundicauda Factor C, rFCES amino acids 29-330, numbered as in SEQ ID NO: 4) (Carcinoscorpius rotundicauda, UniProt Q26422).
T3 construct: rFCES (amino acids 29-330); made in house; host or cells: Drosophila S2 cells
T3 sequence (Q26422 29-330): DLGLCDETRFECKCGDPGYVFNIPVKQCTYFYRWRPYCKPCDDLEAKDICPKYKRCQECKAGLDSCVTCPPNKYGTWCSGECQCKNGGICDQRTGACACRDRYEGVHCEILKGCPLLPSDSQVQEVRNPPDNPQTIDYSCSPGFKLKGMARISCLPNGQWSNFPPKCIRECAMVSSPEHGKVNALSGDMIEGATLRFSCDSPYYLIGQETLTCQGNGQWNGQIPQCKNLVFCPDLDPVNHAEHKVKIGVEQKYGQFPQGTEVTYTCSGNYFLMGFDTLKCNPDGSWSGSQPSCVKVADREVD
The settings on record: rFCES produced in Drosophila cells, 8 ng/μl; reference 77; cited from earlier work.

On to lipid A, for which the “net response, lipid A bound” value in assay [1] is on record as “approximately 30%”; in assay [2], 15%. Besides, the “saturation of immobilized lipid A” value in assay [3] was 92%.

The values above are taken from patent US7297551B2, “Recombinant proteins and peptides for endotoxin biosensors, endotoxin removal, and anti-microbial and anti-endotoxin therapeutics” (priority 1998, dated 2007).
